# In patent publication US8367620B2, “Peptidic growth hormone secretagogues analog compounds and preparations thereof” (Centro de Ingenieria Genetica y Biotecnologia, priority 2006, dated 2013):
# Where no end group is shown, it is not given here.
# Tested on: PC12 cells
# Assay: not given
# Type: cell-based
# Conditions: 72 h
# Protocol: PC12 cells were stored in 75 cm^2 culture flasks on DMEM containing 5% bovine foetal serum and 10% horse serum, with 50 μg/ml gentamicin. Cells were incubated at 37° C. in 5% CO2. To induce differentiation cells were transferred at a density of 1×10^4 to polylysine covered 96 well plates in NGF supplemented DMEM media for 7 days, with medium replacement every 2-3 days. After differentiation cells were incubated with peptidic GHS analog compounds, at different concentrations for 72 h. Cell survival and proliferation was determined using the Promega non-radioactive cytotoxicity proliferation assay, Cell Titer 96, based in the conversion of 3-(4,5-dimethylthiazole-2-yl)-2,5-diphenyltetrazolium bromide (MTT) in to a spectrophotometrically detectable product. After deprivation of NGF medium is removed and 15 μl of the DMEM dissolved dye is added, after 4 hours of 37° C. incubation 100 μl of the stopping solution is added and absorbance is measured at 570 nm
row,Sequence,IC50 [µM]
1,"STDFKPFAI [Compound A226, STDFKPFAI]",4.87

# Same assay, conditions: differentiated PC12 cells, 72 h incubation, MTT; read-out: IC50 during the NGF deprivation induced neuronal death
row,Sequence,IC50 [µM]
1,"HCKFDLDWH [Compound A223, L-amino acid peptide with internal side-chain cycle, SEC; ID NO: 3]",3.12
2,"HGSKFDLEFG [Compound A222, L-amino acid peptide with internal side-chain cycle, SEC; ID NO: 2]",2.03
3,HKGIDSPEQH [Compound A232],4.89
4,"HSKGYDLDH [Compound A227, L-amino acid peptide with internal side-chain cycle, SEC; ID NO: 7]",3.06
5,"SSDFKLYWG [Compound A224, L-amino acid peptide with internal side-chain cycle, SEC; ID NO: 4]",2.37

# Tested on: primary cultures of granular cerebellum cells
# Assay: not given
# Type: cell-based, Wistar rats
# Conditions: not given
# Protocol: Primary cultures of granular cerebellum cells were obtained from 7-9 days Wistar rats. After a rapid dissection, rat cerebellums were submerged in a cold solution and meningeal membranes were removed, each organ was transferred to a 2-3 ml fresh medium solution and finely sliced. Cells were dissociated using a Pasteur pipette and filtered through a nylon […] membrane (Falcon, Franklin Lakes, N.J.). The number of viable cells was determined by cell counting in a hematocytometer with tripan blue as a marker. Cells were cultured on polylysine covered 96 well plates at a density of 6250 cells in […] final volume. Cultures were kept at 37° C. in 5%. CO2 after 24 h, 10 μM of cytosine arabinofuranose (AraC; Sigma) was added to inhibit the proliferation of non-neuronal cells. The capacity of neural damage prevention was tested adding 500 μM hydrogen peroxide in different concentrations of peptidic GHS analog compounds, Cell survival was determined using the Promega non-radioactive cytotoxicity proliferation assay, Cell Titer 96 (Promega).
row,Sequence,IC50 [µM]
1,"STDFKPFAI [Compound A226, STDFKPFAI]",3.58

# Same assay, conditions: 500 μM hydrogen peroxide, rat cerebellum granular cells; read-out: IC50 during the induced neuronal damage by Hydrogen Peroxide addition to a primary culture of neurons
row,Sequence,IC50 [µM]
1,"HCKFDLDWH [Compound A223, L-amino acid peptide with internal side-chain cycle, SEC; ID NO: 3]",2.47
2,"HGSKFDLEFG [Compound A222, L-amino acid peptide with internal side-chain cycle, SEC; ID NO: 2]",1.3
3,HKGIDSPEQH [Compound A232],3.28
4,"HSKGYDLDH [Compound A227, L-amino acid peptide with internal side-chain cycle, SEC; ID NO: 7]",2.26
5,"SSDFKLYWG [Compound A224, L-amino acid peptide with internal side-chain cycle, SEC; ID NO: 4]",3.2

# Tested on: IGF-I mRNA
# Assay: IGF-I mRNA in liver and GH level of intraperitoneally injected tilapias
# Type: in vivo, tilapia
# Conditions: liver of intraperitoneally injected tilapias
# Protocol: IGF-I mRNa was determined in the liver of intraperitoneally injected tilapias monitoring also the GH level time course, showing the peptidic GHS analog compounds as able to stimulate in fish the GH levels in the bloodstream and at incrementing the IGF-I mRNA levels after the injection of the compounds as shown in table 4.
row,Sequence,Normalized IGF-I mRNA levels to a non related synthetic peptide control group
1,"HCKFDLDWH [Compound A223, L-amino acid peptide with internal side-chain cycle, SEC; ID NO: 3]",1.40
2,"HGSKFDLEFG [Compound A222, L-amino acid peptide with internal side-chain cycle, SEC; ID NO: 2]",1.115
3,HKGIDSPEQH [Compound A232],1.23
4,"HSKGYDLDH [Compound A227, L-amino acid peptide with internal side-chain cycle, SEC; ID NO: 7]",1.28
5,"SSDFKLYWG [Compound A224, L-amino acid peptide with internal side-chain cycle, SEC; ID NO: 4]",1.41
6,"STDFKPFAI [Compound A226, STDFKPFAI]",1.13

# Tested on: tilapias
# Assay: Growth acceleration on juvenile tilapias treated intraperitoneally
# Type: in vivo
# Conditions: juvenile tilapia, ip 0.1 μg/g twice a week, three weeks
# Protocol: The compounds were dissolved in a sodium phosphate (PBS) buffer solution and injected twice a week, during three weeks at 0.1 μg/g of humid fish weight (gbw). Compounds were applied individually to a group of 10 male tilapias with an average weight of 60.41±10.36 g and a control group with an average weight of 60.58±19.67 g was receiving PBS only as a control, measuring the average weight every week, all animals in the experiment were labelled with microchips (Stoelting Co. Wood Dale, USA.). for proper identification.
row,Sequence,"Weight Inc. (%), control group growing = 100% [%]"
1,"HCKFDLDWH [Compound A223, L-amino acid peptide with internal side-chain cycle, SEC; ID NO: 3]",105.0
2,"HGSKFDLEFG [Compound A222, L-amino acid peptide with internal side-chain cycle, SEC; ID NO: 2]",96.2
3,HKGIDSPEQH [Compound A232],160.1
4,"HSKGYDLDH [Compound A227, L-amino acid peptide with internal side-chain cycle, SEC; ID NO: 7]",139.9
5,"SSDFKLYWG [Compound A224, L-amino acid peptide with internal side-chain cycle, SEC; ID NO: 4]",132.7
6,"STDFKPFAI [Compound A226, STDFKPFAI]",122.4

# Tested on: tilapia Oreochromis sp. larvae
# Assay: Growth stimulation of tilapia larvae by immersion
# Type: in vivo
# Conditions: immersion 100 μg/L, one hour twice a week, three weeks
# Protocol: (§1) Growth stimulation experiments on tilapia Oreochromis sp. larvae were performed evaluating groups of 100 larvae with 0.01 g average, using the peptidic GHS analogs, in a 100 μg/L concentration, twice a week using an immersion time of one hour.
row,Sequence,"Weight Inc. (%), control group growing = 100% [%]"
1,"HCKFDLDWH [Compound A223, L-amino acid peptide with internal side-chain cycle, SEC; ID NO: 3]",102.0
2,"HGSKFDLEFG [Compound A222, L-amino acid peptide with internal side-chain cycle, SEC; ID NO: 2]",96.0
3,HKGIDSPEQH [Compound A232],148.3
4,"HSKGYDLDH [Compound A227, L-amino acid peptide with internal side-chain cycle, SEC; ID NO: 7]",140.6
5,"SSDFKLYWG [Compound A224, L-amino acid peptide with internal side-chain cycle, SEC; ID NO: 4]",130.0
6,"STDFKPFAI [Compound A226, STDFKPFAI]",120.4

# Tested on: lysozyme
# Assay: Lysozyme levels in tilapia larvae treated by immersion
# Type: in vivo, Oreochromis sp.
# Conditions: immersion 100 μg/L
# Protocol: as §1
# During this experiment lysozyme levels were also monitored and an increase of this immunity marker was obtained in the treated animals as shown in table 8.
row,Sequence,Lysozyme levels of the treated animals relative to the control group
1,"HCKFDLDWH [Compound A223, L-amino acid peptide with internal side-chain cycle, SEC; ID NO: 3]",1.52
2,"HGSKFDLEFG [Compound A222, L-amino acid peptide with internal side-chain cycle, SEC; ID NO: 2]",1.43
3,HKGIDSPEQH [Compound A232],2.41
4,"HSKGYDLDH [Compound A227, L-amino acid peptide with internal side-chain cycle, SEC; ID NO: 7]",1.52
5,"SSDFKLYWG [Compound A224, L-amino acid peptide with internal side-chain cycle, SEC; ID NO: 4]",1.37
6,"STDFKPFAI [Compound A226, STDFKPFAI]",1.17

# Tested on: Litopenaeus vanamei
# Assay: Growing of shrimp larvae by dipping in solution of the compounds
# Type: in vivo
# Conditions: four dips of one hour every three days, 0.1 g/L
# Protocol: Shrimp larvae were subjected two four dips, for one hour every three days with different peptidic GHS analogs at 0.1 g/L. The control group was subjected to the same frequency of dipping with 1 mg/L BSA.
Sequence,"Size Inc. (%), control group growing = 100% [%]","Weight Inc. (%), control group growing = 100% [%]"
"HCKFDLDWH [Compound A223, L-amino acid peptide with internal side-chain cycle, SEC; ID NO: 3]",110.9,120.0
"HGSKFDLEFG [Compound A222, L-amino acid peptide with internal side-chain cycle, SEC; ID NO: 2]",112.2,121.0
HKGIDSPEQH [Compound A232],123.0,132.8
"HSKGYDLDH [Compound A227, L-amino acid peptide with internal side-chain cycle, SEC; ID NO: 7]",118.5,128.6
"SSDFKLYWG [Compound A224, L-amino acid peptide with internal side-chain cycle, SEC; ID NO: 4]",116.0,127.0
"STDFKPFAI [Compound A226, STDFKPFAI]",112.2,120.1

# Tested on: Post-larvae of Litopenaeus vanamei
# Assay: Growth stimulation in shrimps by dietary supplementation
# Type: in vivo
# Conditions: compound at 1% in post-larvae crustacean diet
# Protocol: The peptidic GHS analogs were included at 1% in a post-larvae crustacean diet. Post-larvae of Litopenaeus vanamei were fed with the aforementioned diet in parallel with a control group with 1% BSA addition. The effect was measured with an optical micrometer and weighing the animals in a 0.1 mg precision scale.
row,Sequence,"Size Inc. (%), control group growing = 100% [%]"
1,"HCKFDLDWH [Compound A223, L-amino acid peptide with internal side-chain cycle, SEC; ID NO: 3]",131.6
2,"HGSKFDLEFG [Compound A222, L-amino acid peptide with internal side-chain cycle, SEC; ID NO: 2]",131.0
3,HKGIDSPEQH [Compound A232],139.7
4,"HSKGYDLDH [Compound A227, L-amino acid peptide with internal side-chain cycle, SEC; ID NO: 7]",139.0
5,"SSDFKLYWG [Compound A224, L-amino acid peptide with internal side-chain cycle, SEC; ID NO: 4]",131.2
6,"STDFKPFAI [Compound A226, STDFKPFAI]",130.4

# Tested on: Litopenaeus vanamei post-larvae
# Assay: Growth of shrimp post-larvae fed Artemia-bioencapsulated compounds
# Type: in vivo
# Conditions: Artemia bioencapsulated (10 mh/L, one hour), fed four times a day for one month
# Protocol: The peptidic GHS analogs were bioencapsulated in Artemia to be fed to Litopenaeus vanamei post-larvae. For the encapsulation the compounds were added in a 10 mh/L left for an hour, harvested and washed. The animals were fed four times a day for one month while the control group was fed with BSA encapsulated Artemia The effect was measured with an optical micrometer and weighing the animals in a 0.1 mg precision scale.
row,Sequence,"Size Inc. (%), control group growing = 100% [%]"
1,"HCKFDLDWH [Compound A223, L-amino acid peptide with internal side-chain cycle, SEC; ID NO: 3]",132.0
2,"HGSKFDLEFG [Compound A222, L-amino acid peptide with internal side-chain cycle, SEC; ID NO: 2]",130.3
3,HKGIDSPEQH [Compound A232],139.6
4,"HSKGYDLDH [Compound A227, L-amino acid peptide with internal side-chain cycle, SEC; ID NO: 7]",140.0
5,"SSDFKLYWG [Compound A224, L-amino acid peptide with internal side-chain cycle, SEC; ID NO: 4]",130.0
6,"STDFKPFAI [Compound A226, STDFKPFAI]",132.0
